Key:
[1] = biological target: PCSK9 protein (Homo sapiens (Human), UniProt Q8NBP7); experiment: Binding experiment: surface plasmon resonance (SPR) binding to PCSK9 protein
Text: • 1. Experimental objective: To detect the action of compounds to bind PCSK9 protein by a conventional surface plasmon resonance (SPR) method.

[2] = biological target: PCSK9 secreted by HepG2 cells (Homo sapiens (Human), UniProt Q8NBP7); experiment: Effect on the concentration of PCSK9 secreted by HepG2 cells (ELISA); format: cell-based; conditions: 48 hours incubation, read-out: Inhibitory activity on PCSK9, IC50
Text: • 1. Experimental objective: To detect the inhibitory effect of the compounds on PCSK9. • 2. Experimental instruments and reagents: • 2.1 Instruments:
• CircuLex Human PCSK9 ELISA kit (MBL: CY-8079); • DMEM (Gibco: 31966-021) • FBS (Sigma: S5394) • Compound plate (Thermo: 1353506) • Complete culture medium: DMEM+10% FBS+1×P/S; • Experimental culture medium: DMEM+10% FBS • Cell strain: HepG2 (ATCC: HB-8065)
A self-adhesive seal was applied, the plate was placed on a plate shaker at room temperature, gently shaken, uniformly mixed, and incubated for 1 hour. • 11) The plate was placed on the plate washer, the washing liquid was set to 350 μL per well, and the plate was washed 4 times repeatedly. • 12) 100 μL/well of an HRP-conjugated detection antibody was added, a self-adhesive seal was applied, and the plate was placed on the plate shaker, well mixed uniformly, and incubated for 1 hour. • 13) The plate was placed on the plate washer, the washing liquid was set to 350 μL per well, and the plate was washed 4 times repeatedly. • 14) 100 μL/well of Substrate reagent was added, and the plate was placed in the dark, applied with a self-adhesive seal, placed on the plate shaker, well mixed uniformly, and incubated for 10-20 minutes. • 15) 100 μL/well of Stop solution (1N H2SO4) was added and mixed uniformly. • 16) The optical density (OD) value in each well was measured in sequence at a wavelength of 450 nm by the microplate reader. Detection was carried out within 30 min after the reaction was stopped.
After the OD values were read by the microplate reader, the OD value of the 0-concentration standard in the standard group was subtracted from the OD values of the standards, control group, and samples to obtain the actual OD values for these wells. A standard curve was plotted with Graphpad and the concentration of the sample was calculated. If the dilution was performed during the sample detection, the calculated sample concentration was necessarily multiplied by the corresponding dilution ratio in the final calculation, which was the actual concentration of the sample. Inhibition rate=(actual concentration in control-actual concentration in sample)/actual concentration in control*100. According to the inhibition rates corresponding to the different concentrations, IC50 was derived by Graphpad.

[3] = Pharmacokinetic determination in mice (plasma); format: in vivo, C57BL/6J mice; conditions: C57 mice, PO administration, 5 mpk; for AUC(0-inf) / half-life / MRT / Cmax: male, C57BL/6J, mouse, 5 mg/kg; for AUC(0-inf): read-out: Area under the curve AUC0-∞; for half-life: read-out: Half-life t1/2 (converted); for MRT: read-out: Mean residence time MRT; for Cmax: read-out: Plasma concentration Cmax
Experimental: C57BL/6J mice were used as test animals to study the pharmacokinetic behavior of the compounds of the present disclosure in mice (plasma) after oral and intravenous administration.
C57 mice, male, purchased from Shanghai Bk Lab Animal Co., Ltd., with animal production license number (SCXK (Shanghai) 2013-0006 NO.311620400001794).
• Preparation of oral drug: 10% Solutol HS15
10 g of Solutol HS15 solid was weighed, dissolved in 90 mL of pure water, uniformly mixed, stirred, and ultrasonically treated to form a clear solution.
The compound of the present disclosure was weighed and dissolved in this solution, uniformly shaken, and ultrasonically treated for 15 minutes to obtain a colorless clear solution with a concentration of 0.5 mg/mL. • Preparation of intravenous drug: 5% DMSO+10% Solutol HS15+85% PBS […]
3 male C57 mice were fasted overnight and then respectively administered PO at a dose of 5 mg/kg and a volume of 10 mL/kg. […]
Before and after administration of mice, 0.04 mL of blood was collected from the orbit at 0.083 (iv), 0.25, 0.5, 1, 2, 4, 8, and 24 hours, and placed in EDTA-K2 test tubes, which was centrifuged at 6000 rpm at 4° C. for 6 min to separate plasma which was stored at −80° C.; and the […] were fed 4 h after administration.
The final determination results were obtained by using an LCMS/MS method.
The main pharmacokinetic parameters were calculated using WinNonlin 6.1.

Sequence of PCSK9 protein (Q8NBP7 153-692): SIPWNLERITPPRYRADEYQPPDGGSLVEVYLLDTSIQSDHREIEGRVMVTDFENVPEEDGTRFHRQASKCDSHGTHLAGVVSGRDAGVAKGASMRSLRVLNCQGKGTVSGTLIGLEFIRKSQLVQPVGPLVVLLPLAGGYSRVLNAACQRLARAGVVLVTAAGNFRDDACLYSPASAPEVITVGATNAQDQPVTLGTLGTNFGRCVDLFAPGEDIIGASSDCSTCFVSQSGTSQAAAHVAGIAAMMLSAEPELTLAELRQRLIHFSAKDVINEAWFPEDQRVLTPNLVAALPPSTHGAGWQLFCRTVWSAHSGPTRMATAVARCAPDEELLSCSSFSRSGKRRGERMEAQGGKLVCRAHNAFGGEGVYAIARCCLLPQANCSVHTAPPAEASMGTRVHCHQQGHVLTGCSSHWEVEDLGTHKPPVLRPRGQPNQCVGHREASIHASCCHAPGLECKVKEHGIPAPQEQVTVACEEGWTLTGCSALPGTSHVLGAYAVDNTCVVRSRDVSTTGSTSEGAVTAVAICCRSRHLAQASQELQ
Sequence of PCSK9 secreted by HepG2 cells (Q8NBP7 153-692): as above
Sequence of PCSK9 secreted by HepG2 cells (Q8NBP7 31-152 partner): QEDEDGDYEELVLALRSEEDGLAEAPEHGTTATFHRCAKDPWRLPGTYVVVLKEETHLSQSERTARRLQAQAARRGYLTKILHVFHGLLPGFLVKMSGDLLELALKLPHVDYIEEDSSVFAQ

| SMILES | Kd [1] | IC50 [2] | Time to peak tmax [3] | also measured |
| --- | --- | --- | --- | --- |
| CC1(C)c2cccnc2C(=O)N1c1ccc(N[C@H]2CC[C@H](Nc3ncc(OC(F)F)cn3)C2)nc1 [Example 93, 6-(6-(((1S,3S)-3-((5-(difluoromethoxy)pyrimidin-2-yl)amino)cyclopentyl)amino)pyridin-3-yl)-5,5-dimethyl-5,6-dihydro-7H-pyrrolo[3,4-b]pyridin-7-one] | 2.9 nM |  |  |  |
| Cc1nccc2c1CN(c1ccc(N[C@H]3CC[C@H](Nc4ncc(OC(F)F)cn4)C3)nc1)C2=O [Example 115, 2-(6-(((1S,3S)-3-((5-(difluoromethoxy)pyrimidin-2-yl)amino)cyclopentyl)amino)-3-yl)-4-methyl-2,3-dihydro-1H-pyrrolo[3,4-c]pyridin-1-one] | 3.1 nM | 3800 nM | 0.5 h | AUC(0-inf) [3]: 20900 ng·h/mL; half-life [3]: 5.8 h; MRT [3]: 5.3 h; Cmax [3]: 4290 ng/mL |
| O=C1c2cccnc2CN1c1ccc(N[C@H]2CC[C@H](Nc3ncc(OCC(F)(F)F)cn3)C2)nc1 [Example 124] | 0.8 nM | 16800 nM |  |  |
| O=C1c2ncccc2CN1c1ccc(N[C@H]2CC[C@H](Nc3ncc(OCC(F)(F)F)cn3)C2)nc1 [Example 125] |  | 17300 nM | 1 h | Area under the curve AUC0-∞ [3]: 24298 ng·h/mL; Half-life t1/2 [3]: 7.7 h; Mean residence time MRT [3]: 4.0 h; Plasma concentration Cmax [3]: 8545 ng/mL |
| O=C1c2ncccc2CN1c1ccc(N[C@H]2CC[C@H](Nc3ncc(C4CC4)nn3)C2)nc1 [Example 126, 6-(6-(((1S,3S)-3-((6-cyclopropyl-1,2,4-triazin-3-yl)amino)cyclopentyl)amino)pyridin-3-yl)-5,6-dihydro-7H-pyrrolo[3,4-b]pyridin-7-one] | 1.2 nM | 500 nM |  |  |
| O=C1c2ncccc2CN1c1ccc(N[C@H]2CC[C@H](Nc3ncc(C4CC4)cn3)C2)nc1 [Example 127] | 1.8 nM | 11800 nM |  |  |
| O=C1c2ncncc2CN1c1ccc(N[C@H]2CC[C@H](Nc3ncc(OC(F)F)cn3)C2)nc1 [Example 132, 6-(6-(((1S,3S)-3-((5-(difluoromethoxy)pyrimidin-2-yl)amino)cyclopentyl)amino)pyridin-3-yl)-5,6-dihydro-7H-pyrrolo[3,4-d]pyrimidin-7-one] | 1.1 nM | 12000 nM |  |  |
| O=C1c2cccnc2CN1c1ccc(N[C@H]2CC[C@H](Nc3ncc(C(F)(F)F)cn3)C2)nc1 [Example 133, 6-(6-(((1S,3S)-3-((5-(trifluoromethyl)pyrimidin-2-yl)amino)cyclopentyl)amino)-3-yl)-6,7-dihydro-5H-pyrrolo[3,4-b]pyridin-5-one] |  | 1100 nM | 0.25 h | AUC(0-inf) [3]: 36800 ng·h/mL; half-life [3]: 6.7 h; MRT [3]: 6.2 h; Cmax [3]: 7530 ng/mL |
| O=C1c2ncccc2CN1c1ccc(N[C@H]2CC[C@H](Nc3ncc(OC(F)(F)F)cn3)C2)nc1 [Example 142, 6-(6-(((1S,3S)-3-((5-(trifluoromethoxy)pyrimidin-2-yl)amino)cyclopentyl)amino)pyridin-3-yl)-5,6-dihydro-7H-pyrrolo[3,4-b]pyridin-7-one] |  | 2400 nM | 2 h | AUC(0-inf) [3]: 50800 ng·h/mL; half-life [3]: 6.5 h; MRT [3]: 8.1 h; Cmax [3]: 5930 ng/mL |
| CC1(C)c2cccnc2C(=O)N1c1ccc(N[C@H]2CC[C@H](Nc3ncc(C(F)(F)F)nn3)C2)nc1 [Example 146, 5,5-Dimethyl-6-(6-(((1S,3S)-3-((6-(trifluoromethyl)-1,2,4-triazin-3-yl)amino)cyclopentyl)amino)pyridin-3-yl)-5,6-dihydro-7H-pyrrolo[3,4-b]pyridin-7-one] | 2.5 nM |  |  |  |
| O=C1c2cc(C(F)(F)F)ncc2CN1c1ccc(N[C@H]2CC[C@H](Nc3ncc(C(F)(F)F)nn3)C2)nc1 [Example 152, 6-(Trifluoromethyl)-2-(6-(((1S,3S)-3-((6-(trifluoromethyl)-1,2,4-triazin-3-yl)amino)cyclopentyl)amino)pyridin-3-yl)-2,3-dihydro-1H-pyrrolo[3,4-c]pyridin-1-one] |  | 1500 nM | 2 h | AUC(0-inf) [3]: 65500 ng·h/mL; half-life [3]: 9.6 h; MRT [3]: 12.1 h; Cmax [3]: 5290 ng/mL |
| O=C1c2ncc(F)cc2CN1c1ccc(N[C@H]2CC[C@H](Nc3ncc(C(F)(F)F)nn3)C2)nc1 [Example 153, 3-Fluoro-6-(6-(((1S,3S)-3-((6-(trifluoromethyl)-1,2,4-triazin-3-yl)amino)cyclopentyl)amino)pyridin-3-yl)-5,6-dihydro-7H-pyrrolo[3,4-b]pyridin-7-one] |  | 26400 nM | 2 h | AUC(0-inf) [3]: 34600 ng·h/mL; half-life [3]: 2.9 h; MRT [3]: 4.4 h; Cmax [3]: 6310 ng/mL |

The next lines start with results.

| Kd [1] | IC50 [2] | Time to peak tmax [3] | SMILES | also measured |
| --- | --- | --- | --- | --- |
| 2.7 nM |  |  | O=c1ccccn1-c1ccc(N[C@H]2CC[C@H](Nc3nc4cc(Cl)ccn4n3)C2)nc1 [Example 112, 6′-(((1S,3S)-3-((7-chloro-[1,2,4]triazolo[1,5-a]pyridin-2-yl)amino)cyclopentyl)amino)-2H-[1,3′-bipyridinyl]-2-one] |  |
| 4.2 nM | 14000 nM |  | O=c1ccccn1-c1ccc(N[C@H]2CC[C@H](Nc3nc4cc(C(F)(F)F)ccn4n3)C2)nc1 [Example 113, 6′-(((1S,3S)-3-((7-(trifluoromethyl)-[1,2,4]triazolo[1,5-a]pyridin-2-yl)amino)cyclopentyl)amino)-2H-[1,3′-bipyridinyl]-2-one] |  |
|  | 7900 nM | 0.5 h | O=C1c2cccnc2CN1c1ccc(N[C@H]2CC[C@H](Nc3ncc(C4CC4)cn3)C2)nc1 [Example 128] | Area under the curve AUC0-∞ [3]: 10873 ng·h/mL; Half-life t1/2 [3]: 4.0 h; Mean residence time MRT [3]: 3.7 h; Plasma concentration Cmax [3]: 4307 ng/mL |
| 1.2 nM | 9900 nM |  | Cc1ccn2nc(N[C@H]3CC[C@H](Nc4ccc(N5Cc6cccnc6C5=O)cn4)C3)nc2c1 [Example 130, 6-(6-(((1S,3S)-3-((7-methyl-[1,2,4]triazolo[1,5-a]pyridin-2-yl)amino)cyclopentyl)amino)pyridin-3-yl)-5,6-dihydro-7H-pyrrolo[3,4-b]pyridin-7-one] |  |
| 4.9 nM | 22300 nM |  | O=c1ccccn1-c1ccc(N[C@H]2CC[C@H](Nc3nc4cc(C5CC5)ccn4n3)C2)nc1 [Example 135, 6′-(((1S,3S)-3-((7-cyclopropyl-[1,2,4]triazolo[1,5-a]pyridin-2-yl)amino)cyclopentyl)amino)-2H-[1,3′-bipyridinyl]-2-one] |  |
| 2.6 nM | 17600 nM |  | O=C1c2c(cccc2C(F)(F)F)CN1c1ccc(N[C@H]2CC[C@H](Nc3nc4cc(F)ccn4n3)C2)nc1 [Example 161] |  |
| 3 nM | 22800 nM |  | O=C1c2cccc(C(F)(F)F)c2CN1c1ccc(N[C@H]2CC[C@H](Nc3nc4cc(F)ccn4n3)C2)nc1 [Example 162] |  |
